Test results published in EPA's ToxValDB 9.5 (doi:10.2903/j.efsa.2006.54).

Key:
Anatidae = conditions: short-term; oral; feed; mortality
Typhlodromus pyri = conditions: not reported; reproduction
Canidae = conditions: chronic; duration: 2 years; oral; Dog Other; clinical chemistry
Apis mellifera = conditions: acute, mortality
Daphnia magna = conditions: chronic/long-term; duration: 21 days; reproduction
Aphidius rhopalosiphi = assay: LR50; higher = less toxic; conditions: not reported; mortality

CCOP(=O)=O.CCOP(=O)=O.CCOP(=O)=O.[Al+3] [Fosetyl aluminum]
LC50 (Anatidae): > 3540 mg/kg-day | NOAEL (Rattus norvegicus; chronic, duration: 2 years, oral, clinical chemistry): 300 mg/kg-day | NOAEL (Rattus norvegicus; subchronic, duration: 90 days, histopathology: nonneoplastic): 500 mg/kg-day | LEL (Typhlodromus pyri): 15000 g/ha | LD50 (Coturnix coturnix; acute, oral, mortality): 5000 mg/kg | NOEC (Coturnix coturnix; reproduction developmental): 216 mg/kg-day | NOAEL (Canidae): 300 mg/kg-day | LD50 (acute, mortality): > 7080 mg/kg | NOEC (reproductive, oral, feed): 439 mg/kg-day | LD50 (Apis mellifera; dermal): > 1000 µg/piece | LD50 (Apis mellifera; duration: 48 hours, oral, unspecified): 462 µg/piece | LC50 (Tagia sp.; acute, mortality): > 1000 mg/kg | NOEC (Tagia sp.; chronic/long-term, reproduction): 1670 mg/kg | NOEC (Daphnia magna): 17 mg/L | LC50 (Oncorhynchus mykiss; acute, duration: 96 hours, mortality): > 60 µg/mL | NOEC (Oncorhynchus mykiss; chronic/long-term, duration: 28 days, growth): 100 mg/L | LR50 (Aphidius rhopalosiphi): > 64000 g/ha
